Patent US20100069476A1, “COMPOSITIONS AND METHODS FOR REDUCTION OF CUTANEOUS PHOTOAGEING” (MITSUI NORIN CO., LTD, priority 2005, published 2010)

Columns and labels:
[1] = test system: H2O2; experiment: Intracellular release of H2O2 in skin cells after UVB (dihydrorhodamine 123), topical treatment; assay type: in vivo, mice; conditions: for effect on UVB-induced H2O2 production in cells: EGCG about 1 mg/cm^2, ascorbic acid about 0.5 mg/cm^2, topical; for H2O2 production in skin cells, control experiments without UVB: topical treatment individually
Description: 2. Hydrogen peroxide production as a marker of oxidative stress.
(§1) Hydrophilic cream was used as a vehicle.
After UVB exposure, a single cell suspension from the epidermis and dermis was prepared following procedures well known in the art. H2O2 was assayed using dihydrorhodamine 123 as a fluorescent dye probe. […] Treatment with ascorbic acid and EGCG inhibited UVB-induced H2O2 production in cells.

[2] = test system: oxidation of proteins in the skin; experiment: UVB-induced oxidation of proteins in the skin (protein carbonyl formation, OxyBlot western blot); assay type: in vivo, mice; conditions: EGCG about 1 mg/cm^2, ascorbic acid about 0.5 mg/cm^2, topical
Description: as §1
FIG. 4 depicts a western blot analysis using antibodies against carbonyl-containing proteins. Protein oxidation was determined following western blot analysis by using OxyBlot Protein Oxidation Detection kit (Intergen Company, Purchase, N.Y.).

[3] = test system: MMP-2, MMP-3, MMP-7 and MMP-9; experiment: UVB-induced expression of matrix metalloproteinases by western blot; assay type: in vivo, mice; conditions: EGCG about 1 mg/cm^2, ascorbic acid about 0.5 mg/cm^2, topical
From the text: 4. Matrix metalloproteinases, like MMP-2, MMP-3, MMP-7 and MMP-9 which play a major role in degradation of extracellular matrix of the skin and leads to skin aging or wrinkle formation.
as §1
Most matrix proteins provide tensile strength to the skin, and are therefore thought to be associated with photoageing and/or wrinkling of skin. We previously reported that chronic exposure of skin to UVB induces the up-regulation of several MMP, particularly, MMP-2, MMP-3, MMP-7 and MMP-9. […] The blots were stripped and re-probed for β-actin antibody to verify equal protein loading and equal transfer of proteins from gel to membrane.

[4] = test system: TIMP; experiment: Expression of tissue inhibitor of matrix metalloproteinase in UVB exposed skin; assay type: in vivo, mice; conditions: topical
From the text: 5. Tissue inhibitor of matrix metalloproteinase (TIMP).
Most matrix proteins provide tensile strength to the skin, and are therefore thought to be associated with photoageing and/or wrinkling of skin. […] The blots were stripped and re-probed for β-actin antibody to verify equal protein loading and equal transfer of proteins from gel to membrane.

[5] = test system: UV-induced markers of oxidative stress; experiment: UV-induced markers of oxidative stress and skin appearance, UVB one month on alternate days; assay type: in vivo, mice
From the text: In another exemplary treatment, mice were exposed to UVB (90 mJ/cm^2) for a period of one month on alternate days with or without polyphenone E in the drinking water (0.2%, w/v). Remarkably, this protocol inhibited UV-induced markers of oxidative stress, however, to a lesser extent than topical treatment.

[6] = test system: UVB-induced adverse effects in the skin; experiment: Preliminary dose-dependent efficacy against UVB-induced adverse effects in the skin; assay type: in vivo, mice; conditions: topical 1 mg EGCG/cm^2 skin area, preliminary studies
Description: (§2) SKH-1 hairless mice were used at an age of between 6-8 weeks. The mice were UVB exposed (90 mJ/cm^2) for two months on alternate days for the present photoageing model. At the termination of the experiment, mice were sacrificed 24 hr after the last UV exposure, skin biopsies were collected for analyzing various parameters.
Ascorbic acid and EGCG (or polyphenon E) were dissolved at various concentrations in a hydrophilic cream and were topically applied on the mouse skin 25-30 min before each exposure of UVB. In preliminary studies, we tested the efficacy of AA and EGCG dose-dependently against UVB-induced adverse effects in the skin.

[7] = test system: SKH-1 hairless mice; conditions: for prevention of UVB-induced skin damage as measured by the bi-fold thickness test: topical at optimum dosages (AA 0.5 mg/cm^2, EGCG 1 mg/cm^2), UVB 90 mJ/cm^2 two months on alternate days
Description: as §2
Ascorbic acid and EGCG (or polyphenon E) were dissolved at various concentrations in a hydrophilic cream and were topically applied on the mouse skin 25-30 min before each exposure of UVB. […] Therefore, to evaluate the anti-photoaging effects, we used this dose in all the experiments performed.
Bi-fold skin thickness of the UV exposed skin site with or without the treatment of ascorbic acid (AA) and EGCG.
Control experiments were performed to verify skin damage due to UVB exposure at the above dosage regimen. […] In the below experiments, mice were irradiated to UVB (90 mJ/cm^2) for two months on alternate days to effect photoageing of the skin. Mice were topically treated either with AA, EGCG or a combination of AA (unless indicated otherwise at 0.5 mg EGCG/cm^2 skin area) and EGCG (unless indicated otherwise at 1 mg EGCG/cm^2 skin area) before each exposure of the UVB to determine the photoprotective effect of these agents. Hydrophilic cream was used as a vehicle. UVB alone irradiated mice (control) were topically treated with vehicle only before UVB exposure.
Therefore, and based on these findings, dosages of ascorbic acid for selected experiments were maintained at about or below 0.5 mg/cm^2.
To determine if the effect was additive or synergistic, ascorbic acid and EGCG were topically used at the above determined optimum dosages.

| SMILES | effect on UVB-induced H2O2 production in cells [1] | H2O2 production in skin cells, control experiments without UVB [1] | effect on UVB-induced oxidation of proteins [2] | effect on UVB-induced expression of selected MMP [3] | expression of TIMP [4] | chemopreventive efficacy, compared ([5]; UVB 90 mJ/cm^2 one month on alternate days) | skin appearance in comparison to UV alone exposed skin sites ([5]; plus UV exposed mice) | chemopreventive effects against UVB radiation [6] | prevention of UVB-induced skin damage as measured by the bi-fold thickness test [7] | dosage up to which photoprotection increased (bi-fold thickness test) ([7]; topical, little or no further beneficial effect at increasing dosages) | inflammatory reaction of skin ([7]; topical doses substantially above 0.5 mg/cm^2 of skin) | optimum dosage (protection measured by bi-fold skin thickness) ([7]; topical, data not shown) |
| --- | --- | --- | --- | --- | --- | --- | --- | --- | --- | --- | --- | --- |
| O=C(O[C@@H]1Cc2c(O)cc(O)cc2O[C@@H]1c1cc(O)c(O)c(O)c1)c1cc(O)c(O)c(O)c1 [EGCG, epigallocatechin gallate] | inhibited | did not induce H2O2 production | inhibited UVB-induced oxidation of proteins to some degree | inhibited UVB-induced expression of selected MMP to at least some degree | up-regulated | superior to polyphenone E | relatively better | significant chemopreventive effects | substantially less protection | about 1.0 mg/cm^2 | – | – |
| O=C1O[C@H]([C@@H](O)CO)C(O)=C1O [ascorbic acid] | inhibited | did not induce H2O2 production | inhibited UVB-induced oxidation of proteins to some degree | inhibited UVB-induced expression of selected MMP to at least some degree | up-regulated | – | – | – | substantially less protection | – | tended to provoke an inflammatory reaction | about 0.5 mg/cm^2 |
